Measured values published in patent US7122335B1, “Compounds and methods to enhance rAAV transduction” (priority 1999, dated 2006).

Assays:
[1] = test system: Hela cells; experiment: Cy3-labeled rAAV binding to Hela cells at 4° C., heparin competition; assay type: cell-based, human; conditions: free heparin at the time of infection
Method: FIGS. 18A–D. Cy3-labeled rAAV infection in Hela cells. Hela cells were infected with Cy3-labeled AV.GFP3ori at an MOI of 500 particles/cells for 90 minutes at 4° C. in the absence of serum. Cells were then washed and either directly fixed in 2% paraformaldehyde for 10 minutes or incubated at 37° C. for an additional 60 or 120 minutes prior to fixation. Prior to viral infections, cells were incubated for 30 minutes in 1 μM 5-chloromethylfluorescein diacetate (Cell Tracker™ Green CMFDA, Molecular Probe) to allow for visualization of cells and labeled virus in dual fluorescent channel images. Representative confocal image of cells infected for 90 minutes at 4° C. followed by a 60 and 120 minute incubation at 37° C. are shown for both Cy3 and dual Cy3/FITC channels (FIG. 18A). The nuclei in dual channel images are marked by Nu. The confocal images shown were merged from three 0.5 μm layers taken within the central region of the cell. FIG. 18B depicts non-confocal images with Nomarski and Cy3 channels for cells infected for 90 minutes at 4° C. […]
To assess endocytosis and nuclear trafficking of AAV following treatment with various agents which may modulate these processes, fluorescently labeled virus was prepared. […] Several experimental conditions evaluated crosslinking reactions with dye:rAAV particle ratios of 0.2, 1, 5, 25, 100, and 200. […]

[2] = test system: Hela cells; conditions: previously shown; cited from earlier work

heparin
viral binding of Cy3-labeled rAAV [1]: inhibited in a dose-dependent fashion | rAAV transduction in Hela cells [2]: inhibit most of rAAV transduction
